Experiments:
[1] = tested on: BDF1 mice; test: Cisplatin side-effect time course / MTD, ip daily ×5 (Example 1); format: in vivo; details: ip daily ×5, BDF1 mice
Experimental: First, 0.25 mL of 0.2 mg/mL cisplatin (eq to 2.5 mg/kg) in saline was injected ip, daily ×5, in BDF1 mice. Saline was used as a control. Two mice were used per group and sacrificed on day 0 (control), 2, 4, 7, 9, 11, and 15. In addition, 2 BDF1 mice were injected with a higher dose, 0.25 mL of 0.4 mg/mL cisplatin (eq to 5 mg/kg), daily ×5. Unfortunately, for the higher dose, 1 mouse died on day 7 and the second was euthanized on day 14. This confirms the MTD of cisplatin was <5 mg/kg by ip daily ×5 as shown in the MTD study.
To further narrow down the exact day between day 4 and 7, a follow-up animal study was conducted employing cisplatin at 2.5 mg/kg and the mice were sacrificed on day 0 (control), 5, 6, and 7 (2 mice per point).

[2] = tested on: BDF1 female mice treated with cisplatin; test: Effect of pretreatment on BUN/creatinine, AST/ALT, WBC/platelet in blood of cisplatin-treated mice (Example 2); format: in vivo; details: blood day 6; for platelet count, effect of pretreatment: vs Gp 1 (Control)
Experimental: Gp 1: medium (saline). Gp 2: saline followed by cisplatin (2.5 mg/kg) 30 min later. Gp 3: UTL-5g (15 mg/kg) followed by cisplatin (2.5 mg/kg) 30 min later. Gp 4: UTL-5g (30 mg/kg) followed by cisplatin (2.5 mg/kg) 30 min later. Gp 5: UTL-5g (60 mg/kg) followed by cisplatin (2.5 mg/kg) 30 min later. Gp 6: amifostine (200 mg/kg) followed by cisplatin (2.5 mg/kg) 30 min later; Gp 7: saline followed by cisplatin (5 mg/kg) 30 min later. Gp 1-Gp 6 were daily ×5, but Gp 7 was by single dose on day 0 only. StDev is shown for each Gp (n=5 for each group except for Gp 7, n=3). ** two-tailed p<0.005 vs medium control by Student's t-test.
(§1) Gp 1: medium (saline). Gp 2: saline followed by cisplatin (2.5 mg/kg) 30 min later. Gp 3: UTL-5g (15 mg/kg) followed by cisplatin 30 min later. Gp 4: UTL-5g (30 mg/kg) followed by cisplatin (2.5 mg/kg) 30 min later. Gp 5: UTL-5g (60 mg/kg) followed by cisplatin (2.5 mg/kg) 30 min later. Gp 6: amifostine (200 mg/kg) followed by cisplatin (2.5 mg/kg) 30 min later. Gp 7: saline followed by cisplatin (5 mg/kg) 30 min later. Gp 1-Gp 6 were daily ×5, but Gp 7 was by single dose on day 0 only. StDev is shown for each Gp (n=5 for each group except n=4 for Gp 7). * P<0.05, ** p<0.005 vs. medium control (Gp 1) by Student's t-test (two-tailed).
as §1, with “p<0.005, *** p<0.0005” for “p<0.005”, “control” for “control (Gp 1)”
BDF1 female mice (average wt ˜20 g/mouse) were randomly divided into the following groups (5 mice per group) and each treated daily ×5 (starting from day 0) by ip injection (0.25 mL/mouse), except in Gp 7, each was treated by a single dose ip injection (0.25 mL/mouse) on day 0 only, as described below • Gp 1: medium (saline) followed by medium (saline) 30 min later • Gp 2: medium (saline) followed by cisplatin (2.5 mg/kg) 30 min later • Gp 3: UTL-5g (15 mg/kg) followed by cisplatin (2.5 mg/kg) 30 min later • Gp 4: UTL-5g (30 mg/kg) followed by cisplatin (2.5 mg/kg) 30 min later • Gp 5: UTL-5g (60 mg/kg) followed by cisplatin (2.5 mg/kg) 30 min later • Gp 6: amifostine (200 mg/kg) followed by cisplatin (2.5 mg/kg) 30 min later • Gp 7: medium (saline) followed by cisplatin (5 mg/kg) 30 min later (single dose on Day 0 only)
Preparation of the test samples are described below: • Cisplatin: Cisplatin was dissolved in saline (0.2 and 0.4 mg/mL in saline) for 2.5 and 5 mg/kg ip injection. • UTL-5g: The stock solution of UTL-5g was first dissolved in DMSO and equal volume of Cremophor/propylene glycol (60/40 v/v) was added to make a stock solution. Immediately before the injection, saline was added to this temporary solution at a 90:10 v/v ratio and mixed thoroughly. Three concentrations for ip injection were prepared (1.25, 2.5, and 5 mg/mL) so that the doses are equivalent to 15, 30, and 60 mg/kg with a 0.25 mL injection. • Amifostine: The stock solution of amifostine was dissolved in saline to the desired concentration (16 mg/mL) for the 200 mg/kg injection.
Cardiac puncture was used to obtain blood from each mouse on day 6. To assess liver/kidney protection by UTL-5g, all blood samples were analyzed for BUN, creatinine, AST, and ALT by the chemistry lab at Henry Ford Health System. Unopette® (Becton Dickinson, Franklin Lakes, N.J.) diluting systems and a hemocytometer were used to assess the effect of UTL-5g on WBC and platelet counts in blood.

[3] = tested on: TNF-α; test: TNF-α levels in plasma of cisplatin-treated mice (commercial assay kit, eBioscience); format: in vivo; details: cisplatin 2.5 mg/kg ip daily ×5; pooled plasma day 6
Experimental: FIG. 5. Effect of UTL-5g on TNF-α levels in plasma for mice treated with cisplatin. Gp 1, medium control (saline) only; Gp 2, saline followed by cisplatin (2.5 mg/kg) 30 min later; Gp 3, UTL-5g (15 mg/kg) followed by cisplatin 30 min later; Gp 4, UTL-5g (30 mg/kg) followed by cisplatin 30 min later; Gp 5, UTL-5g (60 mg/kg) followed by cisplatin 30 min later. Y axis represents the relative levels of TNF-α assuming 0% for Gp 1 (Control). Level of TNF-α on the figure is based on the average of 2 readings. […]
Using the samples from the same animal study, TNF-α levels in plasma were analyzed. […]

[4] = within 1 h, cited from earlier work
[5] = tested on: tumor cells; details: animal data; cited from earlier work
[6] = cisplatin 2.5 mg/kg ip daily ×5 or 5 mg/kg single dose
[7] = cisplatin 5 mg/kg ip single dose day 0 (Gp 7) vs Control (Gp 1)
[8] = ip 30 min before cisplatin 2.5 mg/kg, daily ×5, UTL-5g 15, 30, 60 mg/kg, amifostine 200 mg/kg

SMILES	MTD of cisplatin [1] [mg/kg]	ALT levels, effect of cisplatin [2, 6]	AST levels, effect of cisplatin [2, 6]	BUN levels, effect of cisplatin [2, 6]	creatinine, effect of cisplatin [2, 6]	WBC count, effect of cisplatin [2, 7]	platelet count, effect of cisplatin [2, 7]	TNF-α in plasma, effect of cisplatin [3]	cleared from the plasma, share of the peak concentration ([4]; amifostine) [%]	metabolite cleared from the plasma, share of the peak concentration ([4]; metabolite of amifostine) [%]	BUN levels, effect of pretreatment [2, 8]	creatinine, effect of pretreatment [2, 8]	platelet count, effect of pretreatment [2, 8]	platelet count, effect of pretreatment ([2]; ip 30 min before cisplatin 2.5 mg/kg, daily ×5, UTL-5g 15, 30, 60 mg/kg, amifostine 200 mg/kg, listed as Amifostine)	tumor-protective effect [5]
N.N.[Cl][Pt][Cl] [cisplatin, cis-dichlorodiammine platinum, reference compound]	< 5	elevated by cisplatin	elevated by cisplatin	elevated by cisplatin in a dose-dependent manner	Essentially the same results	lower WBC count as compared to Control	did decrease platelet count significantly	elevated by cisplatin	–	–	–	–	–	–	–
NCCCNCCSP(=O)(O)O [amifostine, reference compound]	–	–	–	–	–	–	–	–	95	50	essentially the same reduction	Essentially the same results	statistically significant decrease on platelet count	does not have similar positive effect on platelet production	may have tumor-protective effect

From patent US20120082736A1, “Small-molecule TNF modulator to reduce the side effects of chemotherapy and radiotherapy” (GeneBlue Corporation, priority 2010, published 2012)
